Reference: PMC5563081, “Modulating Protein-Protein Interactions of the Mitotic Polo-like Kinases to Target Mutant KRAS” (Cell Chemical Biology, 2017)

Assays:
Assay in all cases: DiscoverX KINOMEscan
Format in all cases: binding
Details in all cases: read-out: % Control
[1] = molecular target: T1, PLK2 kinase catalytic domain (Homo sapiens, UniProt Q9NYY3)
T1 construct: PLK2 kinase catalytic domain; purchased DiscoverX KINOMEscan
Experimental: (§1) A panel of 55 proteins (comprising 51 human kinases structurally or functionally related to the PLKs, plus the kinase catalytic domains of PLK1, PLK2, PLK3 and PLK4) were selected for testing by DiscoverX using the KINOMEscan assay platform. Compounds were supplied as 40x DMSO stocks and were tested at a final concentration of 50μM for Poloppin and 5μM for Poloppin-II. Binding interactions were reported as percentage of control where lower numbers indicate stronger binding. A cut-off of <35% was applied to report significant binding.

NEK5 = molecular target: T2, NEK5 (Homo sapiens, UniProt Q6P3R8)
T2 construct: purchased DiscoverX KINOMEscan
Experimental: as §1

BMP2K = molecular target: T3, BMP2K (Homo sapiens, UniProt Q9NSY1)
T3 construct: purchased DiscoverX KINOMEscan
T3 sequence (Q9NSY1 whole entry): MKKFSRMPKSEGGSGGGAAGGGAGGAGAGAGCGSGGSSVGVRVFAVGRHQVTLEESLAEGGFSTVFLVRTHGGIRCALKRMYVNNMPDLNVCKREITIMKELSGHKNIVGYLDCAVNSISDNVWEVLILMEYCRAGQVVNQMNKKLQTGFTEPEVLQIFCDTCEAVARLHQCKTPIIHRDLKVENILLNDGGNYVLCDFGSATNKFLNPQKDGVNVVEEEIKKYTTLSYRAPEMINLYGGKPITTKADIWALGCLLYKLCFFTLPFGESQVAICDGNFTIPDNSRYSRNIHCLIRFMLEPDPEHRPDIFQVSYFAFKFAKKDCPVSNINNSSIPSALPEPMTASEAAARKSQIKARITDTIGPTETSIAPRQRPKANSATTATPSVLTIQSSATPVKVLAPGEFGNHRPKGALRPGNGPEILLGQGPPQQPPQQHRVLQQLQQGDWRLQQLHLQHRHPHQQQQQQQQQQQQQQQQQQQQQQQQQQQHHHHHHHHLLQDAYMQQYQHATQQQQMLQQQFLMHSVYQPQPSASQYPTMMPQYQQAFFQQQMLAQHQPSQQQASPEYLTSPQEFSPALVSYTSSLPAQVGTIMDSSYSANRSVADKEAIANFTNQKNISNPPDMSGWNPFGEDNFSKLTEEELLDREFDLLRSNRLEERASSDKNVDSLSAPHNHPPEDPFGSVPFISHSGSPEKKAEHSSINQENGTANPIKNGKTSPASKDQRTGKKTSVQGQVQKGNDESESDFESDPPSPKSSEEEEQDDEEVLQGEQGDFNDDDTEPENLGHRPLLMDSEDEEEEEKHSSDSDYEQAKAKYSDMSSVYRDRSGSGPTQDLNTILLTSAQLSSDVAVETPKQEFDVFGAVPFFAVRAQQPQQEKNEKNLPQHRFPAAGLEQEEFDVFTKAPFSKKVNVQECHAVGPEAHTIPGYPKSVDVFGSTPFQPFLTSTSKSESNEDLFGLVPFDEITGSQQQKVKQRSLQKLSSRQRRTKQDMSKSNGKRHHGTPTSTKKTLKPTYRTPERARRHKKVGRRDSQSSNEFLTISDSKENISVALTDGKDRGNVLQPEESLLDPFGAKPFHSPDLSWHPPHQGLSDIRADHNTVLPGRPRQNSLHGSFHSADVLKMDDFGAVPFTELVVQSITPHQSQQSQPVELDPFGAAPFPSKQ
Experimental: as §1

STK35 = molecular target: T4, STK35 (Homo sapiens, UniProt Q8TDR2)
T4 construct: purchased DiscoverX KINOMEscan
Experimental: as §1

CAMKK2 = molecular target: T5, CAMKK2 (Homo sapiens, UniProt Q96RR4)
T5 construct: purchased DiscoverX KINOMEscan
Experimental: as §1

ULK3 = molecular target: T6, ULK3 (Homo sapiens, UniProt Q6PHR2)
T6 construct: purchased DiscoverX KINOMEscan
Experimental: as §1

EIF2AK4 = molecular target: T7, EIF2AK4 (Homo sapiens, UniProt Q9P2K8, S808G)
T7 construct: purchased DiscoverX KINOMEscan
Experimental: as §1

CAMKK1 = molecular target: T8, CAMKK1 (Homo sapiens, UniProt Q8N5S9)
T8 construct: purchased DiscoverX KINOMEscan
Experimental: as §1

WEE2 = molecular target: T9, WEE2 (Homo sapiens, UniProt P0C1S8)
T9 construct: purchased DiscoverX KINOMEscan
Experimental: as §1

GSG2 = molecular target: T10, GSG2 (Homo sapiens, UniProt Q8TF76)
T10 construct: purchased DiscoverX KINOMEscan
Experimental: as §1

CHUK = molecular target: T11, CHUK (Homo sapiens, UniProt O15111)
T11 construct: purchased DiscoverX KINOMEscan
Experimental: as §1

TLK2 = molecular target: T12, TLK2 (Homo sapiens, UniProt Q86UE8)
T12 construct: purchased DiscoverX KINOMEscan
Experimental: as §1

NEK1 = molecular target: T13, NEK1 (Homo sapiens, UniProt Q96PY6)
T13 construct: purchased DiscoverX KINOMEscan
Experimental: as §1

AURKA = molecular target: T14, AURKA (Homo sapiens, UniProt O14965)
T14 construct: purchased DiscoverX KINOMEscan
T14 sequence (O14965 whole entry): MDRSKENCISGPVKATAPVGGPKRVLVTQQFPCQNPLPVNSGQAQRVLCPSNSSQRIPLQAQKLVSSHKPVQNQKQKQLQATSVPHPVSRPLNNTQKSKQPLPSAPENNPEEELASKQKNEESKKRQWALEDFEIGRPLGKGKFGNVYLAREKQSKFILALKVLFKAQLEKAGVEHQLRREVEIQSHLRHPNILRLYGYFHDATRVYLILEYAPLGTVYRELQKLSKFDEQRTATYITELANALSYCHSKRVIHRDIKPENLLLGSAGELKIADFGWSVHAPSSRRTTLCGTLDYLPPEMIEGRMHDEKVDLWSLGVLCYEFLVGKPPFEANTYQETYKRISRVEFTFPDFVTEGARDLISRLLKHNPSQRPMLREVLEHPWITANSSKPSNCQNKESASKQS
Experimental: as §1

TBK1 = molecular target: T15, TBK1 (Homo sapiens, UniProt Q9UHD2)
T15 construct: purchased DiscoverX KINOMEscan
Experimental: as §1

WNK3 = molecular target: T16, WNK3 (Homo sapiens, UniProt Q9BYP7)
T16 construct: purchased DiscoverX KINOMEscan
T16 sequence (Q9BYP7 whole entry): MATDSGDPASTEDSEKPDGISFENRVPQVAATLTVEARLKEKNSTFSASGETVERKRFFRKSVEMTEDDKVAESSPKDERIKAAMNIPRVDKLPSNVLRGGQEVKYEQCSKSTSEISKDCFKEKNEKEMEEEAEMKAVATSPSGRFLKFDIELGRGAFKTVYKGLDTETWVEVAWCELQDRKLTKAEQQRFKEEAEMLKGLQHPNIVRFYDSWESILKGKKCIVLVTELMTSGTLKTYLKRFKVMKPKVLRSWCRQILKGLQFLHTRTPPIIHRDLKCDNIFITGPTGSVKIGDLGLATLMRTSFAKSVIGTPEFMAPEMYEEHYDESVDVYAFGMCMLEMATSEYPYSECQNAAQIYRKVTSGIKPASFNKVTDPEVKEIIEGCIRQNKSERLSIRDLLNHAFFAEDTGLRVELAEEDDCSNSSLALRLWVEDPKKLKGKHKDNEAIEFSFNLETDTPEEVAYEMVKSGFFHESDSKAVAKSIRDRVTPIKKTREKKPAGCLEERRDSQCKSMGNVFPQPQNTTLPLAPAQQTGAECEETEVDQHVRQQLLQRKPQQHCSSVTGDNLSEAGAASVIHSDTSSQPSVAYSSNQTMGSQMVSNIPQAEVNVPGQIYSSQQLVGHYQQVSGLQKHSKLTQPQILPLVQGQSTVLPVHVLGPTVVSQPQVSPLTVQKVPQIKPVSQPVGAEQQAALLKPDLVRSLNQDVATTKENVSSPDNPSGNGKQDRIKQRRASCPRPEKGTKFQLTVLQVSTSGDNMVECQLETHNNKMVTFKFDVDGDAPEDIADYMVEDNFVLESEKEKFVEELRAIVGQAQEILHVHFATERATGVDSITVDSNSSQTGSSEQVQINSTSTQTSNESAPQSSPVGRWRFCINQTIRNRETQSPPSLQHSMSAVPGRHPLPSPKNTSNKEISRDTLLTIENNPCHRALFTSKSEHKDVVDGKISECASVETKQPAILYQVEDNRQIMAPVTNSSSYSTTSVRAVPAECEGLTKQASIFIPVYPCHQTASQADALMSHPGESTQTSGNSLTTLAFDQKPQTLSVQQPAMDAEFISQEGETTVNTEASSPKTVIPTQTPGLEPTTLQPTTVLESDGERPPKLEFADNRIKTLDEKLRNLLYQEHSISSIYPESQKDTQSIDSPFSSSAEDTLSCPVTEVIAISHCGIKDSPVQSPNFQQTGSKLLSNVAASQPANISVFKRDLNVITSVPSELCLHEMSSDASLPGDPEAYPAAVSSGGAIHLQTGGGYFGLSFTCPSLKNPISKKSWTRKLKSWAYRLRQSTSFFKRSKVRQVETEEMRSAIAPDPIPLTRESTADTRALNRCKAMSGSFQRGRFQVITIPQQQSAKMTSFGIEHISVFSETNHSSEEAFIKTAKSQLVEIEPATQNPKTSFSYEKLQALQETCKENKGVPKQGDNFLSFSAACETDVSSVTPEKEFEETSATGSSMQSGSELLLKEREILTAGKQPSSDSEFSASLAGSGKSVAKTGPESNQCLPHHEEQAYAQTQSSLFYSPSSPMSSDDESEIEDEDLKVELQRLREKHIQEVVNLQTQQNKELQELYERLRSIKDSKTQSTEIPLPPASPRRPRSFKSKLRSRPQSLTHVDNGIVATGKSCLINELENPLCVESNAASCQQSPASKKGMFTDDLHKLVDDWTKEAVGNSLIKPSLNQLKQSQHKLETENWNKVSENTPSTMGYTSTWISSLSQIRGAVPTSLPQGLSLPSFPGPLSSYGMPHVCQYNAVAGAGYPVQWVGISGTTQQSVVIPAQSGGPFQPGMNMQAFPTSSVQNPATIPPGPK
Experimental: as §1

[2] = molecular target: T17, PLK1 kinase catalytic domain (Homo sapiens, UniProt P53350)
T17 construct: PLK1 kinase catalytic domain; purchased DiscoverX KINOMEscan
Experimental: as §1

IKBKE = molecular target: T18, IKBKE (Homo sapiens, UniProt Q14164)
T18 construct: purchased DiscoverX KINOMEscan
Experimental: as §1

BUB1 = molecular target: T19, BUB1 (Homo sapiens, UniProt O43683)
T19 construct: purchased DiscoverX KINOMEscan
Experimental: as §1

NEK11 = molecular target: T20, NEK11 (Homo sapiens, UniProt Q8NG66)
T20 construct: purchased DiscoverX KINOMEscan
Experimental: as §1

STK16 = molecular target: T21, STK16 (Homo sapiens, UniProt O75716)
T21 construct: purchased DiscoverX KINOMEscan
Experimental: as §1

IKBKB = molecular target: T22, IKBKB (Homo sapiens, UniProt O14920)
T22 construct: purchased DiscoverX KINOMEscan
Experimental: as §1

NEK7 = molecular target: T23, NEK7 (Homo sapiens, UniProt Q8TDX7)
T23 construct: purchased DiscoverX KINOMEscan
Experimental: as §1

AURKB = molecular target: T24, AURKB (Homo sapiens, UniProt Q96GD4)
T24 construct: purchased DiscoverX KINOMEscan
Experimental: as §1

NEK3 = molecular target: T25, NEK3 (Homo sapiens, UniProt P51956)
T25 construct: purchased DiscoverX KINOMEscan
T25 sequence (P51956 whole entry): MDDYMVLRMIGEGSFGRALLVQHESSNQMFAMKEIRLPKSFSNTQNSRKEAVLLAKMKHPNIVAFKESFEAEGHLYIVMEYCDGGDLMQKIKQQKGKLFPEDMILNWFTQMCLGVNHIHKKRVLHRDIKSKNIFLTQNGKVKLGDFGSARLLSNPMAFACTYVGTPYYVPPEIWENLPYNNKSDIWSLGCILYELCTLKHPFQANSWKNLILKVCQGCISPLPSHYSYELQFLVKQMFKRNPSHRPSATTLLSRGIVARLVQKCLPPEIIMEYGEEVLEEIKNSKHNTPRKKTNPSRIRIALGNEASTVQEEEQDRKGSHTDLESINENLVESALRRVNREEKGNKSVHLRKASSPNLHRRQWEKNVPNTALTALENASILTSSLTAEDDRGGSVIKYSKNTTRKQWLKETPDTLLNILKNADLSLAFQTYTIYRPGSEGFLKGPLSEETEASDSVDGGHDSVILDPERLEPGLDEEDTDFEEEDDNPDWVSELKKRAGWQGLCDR
Experimental: as §1

DSTYK = molecular target: T26, DSTYK (Homo sapiens, UniProt Q6XUX3)
T26 construct: purchased DiscoverX KINOMEscan
Experimental: as §1

CSNK2A2 = molecular target: T27, CSNK2A2 (Homo sapiens, UniProt P19784)
T27 construct: purchased DiscoverX KINOMEscan
Experimental: as §1

ERN1 = molecular target: T28, ERN1 (Homo sapiens, UniProt O75460)
T28 construct: purchased DiscoverX KINOMEscan
T28 sequence (O75460 19-977): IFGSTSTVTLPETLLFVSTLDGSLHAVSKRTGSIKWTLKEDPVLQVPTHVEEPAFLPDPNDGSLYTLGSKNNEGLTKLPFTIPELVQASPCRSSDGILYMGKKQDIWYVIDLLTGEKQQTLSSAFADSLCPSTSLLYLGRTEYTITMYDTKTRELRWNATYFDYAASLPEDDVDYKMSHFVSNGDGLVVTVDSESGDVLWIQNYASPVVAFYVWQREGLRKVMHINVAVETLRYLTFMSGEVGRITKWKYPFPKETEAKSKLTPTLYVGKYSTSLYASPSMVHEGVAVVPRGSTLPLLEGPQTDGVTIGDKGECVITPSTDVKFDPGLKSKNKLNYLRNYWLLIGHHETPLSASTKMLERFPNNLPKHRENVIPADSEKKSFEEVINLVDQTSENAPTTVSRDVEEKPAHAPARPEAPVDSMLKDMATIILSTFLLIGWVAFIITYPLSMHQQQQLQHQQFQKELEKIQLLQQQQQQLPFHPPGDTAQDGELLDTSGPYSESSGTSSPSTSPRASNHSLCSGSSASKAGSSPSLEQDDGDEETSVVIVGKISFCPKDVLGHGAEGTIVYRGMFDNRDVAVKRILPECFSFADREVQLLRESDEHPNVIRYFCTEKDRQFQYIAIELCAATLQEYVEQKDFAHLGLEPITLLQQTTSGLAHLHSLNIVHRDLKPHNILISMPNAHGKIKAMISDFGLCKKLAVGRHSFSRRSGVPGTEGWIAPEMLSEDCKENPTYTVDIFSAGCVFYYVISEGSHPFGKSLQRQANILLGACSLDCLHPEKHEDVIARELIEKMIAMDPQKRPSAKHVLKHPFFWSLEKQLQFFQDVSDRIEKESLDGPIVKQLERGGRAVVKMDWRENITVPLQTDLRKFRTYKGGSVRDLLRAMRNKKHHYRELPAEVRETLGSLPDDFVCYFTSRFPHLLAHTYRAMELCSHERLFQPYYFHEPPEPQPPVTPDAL
Experimental: as §1

SBK1 = molecular target: T29, SBK1 (Homo sapiens, UniProt Q52WX2)
T29 construct: purchased DiscoverX KINOMEscan
Experimental: as §1

[3] = molecular target: T30, PLK4 kinase catalytic domain (Homo sapiens, UniProt O00444)
T30 construct: PLK4 kinase catalytic domain; purchased DiscoverX KINOMEscan
Experimental: as §1

ULK1 = molecular target: T31, ULK1 (Homo sapiens, UniProt O75385)
T31 construct: purchased DiscoverX KINOMEscan
Experimental: as §1

CSNK2A1 = molecular target: T32, CSNK2A1 (Homo sapiens, UniProt P68400)
T32 construct: purchased DiscoverX KINOMEscan
Experimental: as §1

WEE1 = molecular target: T33, WEE1 (Homo sapiens, UniProt P30291)
T33 construct: purchased DiscoverX KINOMEscan
Experimental: as §1

STK36 = molecular target: T34, STK36 (Homo sapiens, UniProt Q9NRP7)
T34 construct: purchased DiscoverX KINOMEscan
Experimental: as §1

SgK110 = molecular target: T35, SgK110 (Homo sapiens, UniProt P0C264)
T35 construct: purchased DiscoverX KINOMEscan
Experimental: as §1

NEK2 = molecular target: T36, NEK2 (Homo sapiens, UniProt P51955)
T36 construct: purchased DiscoverX KINOMEscan
Experimental: as §1

WNK1 = molecular target: T37, WNK1 (Homo sapiens, UniProt Q9H4A3)
T37 construct: purchased DiscoverX KINOMEscan
Experimental: as §1

NEK10 = molecular target: T38, NEK10 (Homo sapiens, UniProt Q6ZWH5)
T38 construct: purchased DiscoverX KINOMEscan
Experimental: as §1

TLK1 = molecular target: T39, TLK1 (Homo sapiens, UniProt Q9UKI8)
T39 construct: purchased DiscoverX KINOMEscan
Experimental: as §1

ULK2 = molecular target: T40, ULK2 (Homo sapiens, UniProt Q8IYT8)
T40 construct: purchased DiscoverX KINOMEscan
Experimental: as §1

AAK1 = molecular target: T41, AAK1 (Homo sapiens, UniProt Q2M2I8)
T41 construct: purchased DiscoverX KINOMEscan
Experimental: as §1

T1 sequence (Q9NYY3 82-334 limits assumed): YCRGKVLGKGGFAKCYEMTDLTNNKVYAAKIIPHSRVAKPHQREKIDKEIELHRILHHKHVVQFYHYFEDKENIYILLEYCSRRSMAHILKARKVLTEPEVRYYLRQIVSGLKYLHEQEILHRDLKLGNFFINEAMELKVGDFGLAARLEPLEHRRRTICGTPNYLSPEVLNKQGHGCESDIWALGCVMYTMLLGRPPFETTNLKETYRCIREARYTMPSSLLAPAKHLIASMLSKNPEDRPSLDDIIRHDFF

Structure (SMILES): CN(C)CCNC(=O)c1ccc(-c2ccc(-c3ccc(Cl)cc3)n2-c2ccccc2C(F)(F)F)cc1 [Poloppin-II]
- remaining binding at 5 µM ([1]; PLK2, Poloppin-II 5µM, hit <35%): 85%
- remaining binding at 5 µM (NEK5; NEK5, Poloppin-II 5µM, hit <35%): 99%
- remaining binding at 5 µM (BMP2K; BMP2K, Poloppin-II 5µM, hit <35%): 85%
- remaining binding at 5 µM (STK35; STK35, Poloppin-II 5µM, hit <35%): 71%
- remaining binding at 5 µM (CAMKK2; CAMKK2, Poloppin-II 5µM, hit <35%): 97%
- remaining binding at 5 µM (ULK3; ULK3, Poloppin-II 5µM, hit <35%): 88%
- remaining binding at 5 µM (EIF2AK4; EIF2AK4, Poloppin-II 5µM, hit <35%): 97%
- remaining binding at 5 µM (CAMKK1; CAMKK1, Poloppin-II 5µM, hit <35%): 91%
- remaining binding at 5 µM (WEE2; WEE2, Poloppin-II 5µM, hit <35%): 92%
- remaining binding at 5 µM (GSG2; GSG2, Poloppin-II 5µM, hit <35%): 77%
- remaining binding at 5 µM (CHUK; CHUK, Poloppin-II 5µM, hit <35%): 100%
- remaining binding at 5 µM (TLK2; TLK2, Poloppin-II 5µM, hit <35%): 94%
- remaining binding at 5 µM (NEK1; NEK1, Poloppin-II 5µM, hit <35%): 100%
- remaining binding at 5 µM (AURKA; AURKA, Poloppin-II 5µM, hit <35%): 83%
- remaining binding at 5 µM (TBK1; TBK1, Poloppin-II 5µM, hit <35%): 80%
- remaining binding at 5 µM (WNK3; WNK3, Poloppin-II 5µM, hit <35%): 100%
- remaining binding at 5 µM ([2]; PLK1, Poloppin-II 5µM, hit <35%): 100%
- remaining binding at 5 µM (IKBKE; IKBKE, Poloppin-II 5µM, hit <35%): 75%
- remaining binding at 5 µM (BUB1; BUB1, Poloppin-II 5µM, hit <35%): 90%
- remaining binding at 5 µM (NEK11; NEK11, Poloppin-II 5µM, hit <35%): 100%
- remaining binding at 5 µM (STK16; STK16, Poloppin-II 5µM, hit <35%): 92%
- remaining binding at 5 µM (IKBKB; IKBKB, Poloppin-II 5µM, hit <35%): 100%
- remaining binding at 5 µM (NEK7; NEK7, Poloppin-II 5µM, hit <35%): 79%
- remaining binding at 5 µM (AURKB; AURKB, Poloppin-II 5µM, hit <35%): 95%
- remaining binding at 5 µM (NEK3; NEK3, Poloppin-II 5µM, hit <35%): 74%
- remaining binding at 5 µM (DSTYK; DSTYK, Poloppin-II 5µM, hit <35%): 75%
- remaining binding at 5 µM (CSNK2A2; CSNK2A2, Poloppin-II 5µM, hit <35%): 92%
- remaining binding at 5 µM (ERN1; ERN1, Poloppin-II 5µM, hit <35%): 74%
- remaining binding at 5 µM (SBK1; SBK1, Poloppin-II 5µM, hit <35%): 61%
- remaining binding at 5 µM ([3]; PLK4, Poloppin-II 5µM, hit <35%): 90%
- remaining binding at 5 µM (ULK1; ULK1, Poloppin-II 5µM, hit <35%): 84%
- remaining binding at 5 µM (CSNK2A1; CSNK2A1, Poloppin-II 5µM, hit <35%): 96%
- remaining binding at 5 µM (WEE1; WEE1, Poloppin-II 5µM, hit <35%): 98%
- remaining binding at 5 µM (STK36; STK36, Poloppin-II 5µM, hit <35%): 91%
- remaining binding at 5 µM (SgK110; SgK110, Poloppin-II 5µM, hit <35%): 100%
- remaining binding at 5 µM (NEK2; NEK2, Poloppin-II 5µM, hit <35%): 94%
- remaining binding at 5 µM (WNK1; WNK1, Poloppin-II 5µM, hit <35%): 97%
- remaining binding at 5 µM (NEK10; NEK10, Poloppin-II 5µM, hit <35%): 94%
- remaining binding at 5 µM (TLK1; TLK1, Poloppin-II 5µM, hit <35%): 99%
- remaining binding at 5 µM (ULK2; ULK2, Poloppin-II 5µM, hit <35%): 100%
- remaining binding at 5 µM (AAK1; AAK1, Poloppin-II 5µM, hit <35%): 100%

Structure (SMILES): O=C(O)CCc1ccc(-c2ccc(Br)cc2)n1-c1ccccc1C(F)(F)F [Poloppin]
- remaining binding at 50 µM [1]: 78%
- remaining binding at 50 µM (NEK5): 83%
- remaining binding at 50 µM (BMP2K): 68%
- remaining binding at 50 µM (STK35): 100%
- remaining binding at 50 µM (CAMKK2): 82%
- remaining binding at 50 µM (ULK3): 94%
- remaining binding at 50 µM (EIF2AK4): 100%
- remaining binding at 50 µM (CAMKK1): 77%
- remaining binding at 50 µM (WEE2): 86%
- remaining binding at 50 µM (GSG2): 100%
- remaining binding at 50 µM (CHUK): 100%
- remaining binding at 50 µM (TLK2): 90%
- remaining binding at 50 µM (NEK1): 57%
- remaining binding at 50 µM (AURKA): 81%
- remaining binding at 50 µM (TBK1): 75%
- remaining binding at 50 µM (WNK3): 100%
- remaining binding at 50 µM [2]: 100%
- remaining binding at 50 µM (IKBKE): 55%
- remaining binding at 50 µM (BUB1): 99%
- remaining binding at 50 µM (NEK11): 100%
- remaining binding at 50 µM (STK16): 81%
- remaining binding at 50 µM (IKBKB): 100%
- remaining binding at 50 µM (NEK7): 68%
- remaining binding at 50 µM (AURKB): 87%
- remaining binding at 50 µM (NEK3): 72%
- remaining binding at 50 µM (DSTYK): 49%
- remaining binding at 50 µM (CSNK2A2): 84%
- remaining binding at 50 µM (ERN1): 76%
- remaining binding at 50 µM (SBK1): 61%
- remaining binding at 50 µM [3]: 88%
- remaining binding at 50 µM (ULK1): 84%
- remaining binding at 50 µM (CSNK2A1): 87%
- remaining binding at 50 µM (WEE1): 99%
- remaining binding at 50 µM (STK36): 91%
- remaining binding at 50 µM (SgK110): 94%
- remaining binding at 50 µM (NEK2): 95%
- remaining binding at 50 µM (WNK1): 100%
- remaining binding at 50 µM (NEK10): 98%
- remaining binding at 50 µM (TLK1): 100%
- remaining binding at 50 µM (ULK2): 100%
- remaining binding at 50 µM (AAK1): 92%
